The conditions of data set [1]: cited from earlier work.
The conditions of data set [2]: cited from earlier work. This is another data set of the same source.
For data set [3] the following is noted: people with high-risk SMM, oral; cited from earlier work.
The conditions of data set [4]: FIG. 10. As to the method:
In vitro permeability of lenalidomide through human cadaver skin was conducted using in vitro franz diffusion cells to identify potential permeation enhancers for lenalidomide. Donor compartment was loaded with Lenalidomide solution or gel.
Lenalidomide H1 solutions were prepared in following different solvents Lactic acid, Dimethyl sulfoxide, NMP, Levulinic acid, Super refined PEG 400, Tween 40, Polysorbate 80.
Lenalidomide gels were prepared using a following solvent system composition (Table 7). Gels were made with 10 different permeation enhancers.

The procedure of data set [5]:
Next, the solubility of lenalidomide H1 was determined in silicone polymer-based pressure sensitive adhesives and acrylic polymer-based pressure sensitive adhesives. Pressure sensitive adhesive polymers are the major component of the pressure sensitive adhesives matrix patches and typically constitute 50%-85% of the formulation.
This is another data set of the same source.

Data on two molecules can be found in patent US20220395468A1, “Transdermal Drug Delivery Systems for Administration of a Therapeutically Effective Amount of Lenalidomide and Other Immunomodulatory Agents” (Starton Therapeutics, Inc., priority 2021, published 2022).

Where two headings read alike, the source gives them in different places. A value given as a limit tells only on which side of the number the result lay.

By log P is commonly meant a log measure of how a compound divides between an organic and an aqueous phase. With `Nc1cccc2c1CN(C1CCC(=O)NC1=O)C2=O` (stereo not drawn) [Lenalidomide, 3-(4-amino-1-3-dihydro-1-oxo-2H-isoindol-2yl)-2,6-piperidinedione], in data set [1], the “log P” value is listed as −0.4. Further, the “solubility of the LLD in solution” value in data set [2] is 400 to 500 µg/mL. For the same molecule, the Solubility is 10-20% (in DMSO, room temperature); “about 30 % w/w” (in NMP, room temperature); “less than 0.5%” (in esters); “less than 2%” (in glycols); “more than 5%” (in two organic acids, Lactic acid and levulinic acid). In addition, the “discontinued due to drug-related side effects” value in data set [3] is given as 40%. For the same molecule, the three-year progression-free survival in data set [3] was 91%.
For `Nc1cccc2c1CN(C1CCC(=O)NC1=O)C2=O` (stereo not drawn) [Lenalidomide H1], the “rate of lenalidomide permeation” value in data set [4] (solution in Lactic acid) was “highest rate”; in data set [4] (solution in Levulinic acid), “negligible permeation”; in data set [4] (solutions in NMP and DMSO), “followed by NMP and DMSO”; in data set [4] (solutions in SR PEG 400, TWEEN 40, Polysorbate 80), “insignificant to no permeation”. For the same molecule, the “Lenalidomide H1 solubility” value in data set [5] (in BIO-PSA 7-4202 (silicone PSA)) is given as “Less than 0.5% W/W”; in data set [5] (in Duro-Tak 87-2052 (acrylic PSA)), “Less than 0.5% W/W”; in data set [5] (in Duro-Tak 87-2074 (acrylic PSA)), “Less than 0.5% W/W”; in data set [5] (in Duro-Tak 87-2194 (acrylic PSA)), “Less than 0.5% W/W”; in data set [5] (in Duro-Tak 87-2516 (acrylic PSA)), “approximately 0.5% W/W”; in data set [5] (in Duro-Tak 87-2852 (acrylic PSA)), “Less than 0.5% W/W”. In addition, the “Lenalidomide H1 solubility” value in data set [5] (in Duro-Tak 87-4098 (acrylic PSA)) and in data set [5] (in Duro-Tak 87-9301 (acrylic PSA)) was “Less than 0.5% W/W” throughout. Also, the Solubility (Aquasolve HPMC-AS MF (0.25 G) + Solvent system Acetone:Methanol (1:1)) turned out to be 1.2 % W/W; the Solubility (Eudragit + Solvent system Acetone:Methanol (1:1)) is 0.9 % W/W; the Solubility (Kollidon 30 (0.5 G) + Solvent system Acetone:Methanol (1:1)) came to 2.2 % W/W; the Solubility (Kollidon 90 F (0.5 G) + Solvent system Acetone:Methanol (1:1)) came out at 2.0 % W/W; the Solubility (Kollidon VA 64 (0.5 G) + Solvent system Acetone:Methanol (1:1)) came out at 2.1 % W/W; the Solubility (Kollisolv P124 Geismer (0.27 G) + Solvent system Acetone:Methanol (1:1)) was found to be 0.9 % W/W. Moreover, the Solubility is, setting by setting: (in Acetone) 0.2 % W/W; (in Acetonitrile) 0.3 % W/W; (in Dimethyl sulfoxide) 20.7 % W/W; (in Ethanol 190 Proof) 0.2 % W/W; (in Ethyl acetate) <0.1 % W/W; (in Heptane) <0.1 % W/W. The Solubility by setting is: (in Isooctadecanoic acid) <0.1 % W/W; (in Lactic acid) 9.3 % W/W; (in Lauryl Lactate) 0.1 % W/W; (in Levulinic acid) 5.5 % W/W; (in Methanol) 0.3 % W/W; (in Methanol:Acetone (1:1)) 0.9 % W/W. Further, the Solubility by setting is: (in Methyl Laurate) <0.1 % W/W; (in NMP) 29.3 % W/W; (in Propylene Glycol) 0.4 % W/W; (in Propylene Glycol monolaurate) <0.1 % W/W; (in Super refined PEG 400) 1.6 % W/W; (in Toluene) <0.1 % W/W.
